In general, IC50 refers to the concentration needed to halve the response being measured. A low value points to greater potency in that assay.

This passage reports IC50 results from PMC5395518, “Design, synthesis, and biological evaluation of the novel glycyrrhetinic acid-cinnamoyl hybrids as anti-tumor agents” (Chemistry Central Journal, 2016).

One assay deals with Hela cells. In words: MTT cytotoxicity assay, Hela. Format: cell-based, human. The conditions noted are these: MTT, 72 h, mean ± SD (n = 3). From the text: (§1) HepG2 (human hepatocellular carcinoma), Hela (human cervical cancer), HT-29 (human colon carcinoma), MDCK (Madin–Darby canine kidney), H9C2 (rat myocardial cells) and HY926 were purchased from the Chinese Academy of Medical Sciences and Peking Union Medical College. All of these cell lines were maintained in RPMI-1640 (DMEM) supplemented with 10% (v/v) fetal bovine serum (FBS) and 1% (v/v) penicillin/streptomycin (Thermo Technologies, New York, NY, USA) under a humidified atmosphere containing 5% CO2 at 37 °C. To provide stock solutions which were used to prepare various concentrations of treatment media, GA and hybrids were added a volume of DMSO.
(§2) The cytotoxicity of these compounds was evaluated on three human cancer cell lines (HepG2, HT-29, Hela) and three non-tumor cells lines (MDCK, HY926, H9C2) and MTT assay was performed to detect the cell proliferation. Simply, exponentially growing cells were cultured in 96-well plates (3 × 10^3 cells/well). And the plates were placed in a humidified atmosphere for 72 h at 37 °C with 5% CO2. After added MTT solution (5 mg/mL) 20 μL to each well, the plate was incubated for a further 4 h. Then the cell supernatant was removed and 150 μL DMSO was added. Finally, the absorbance was determined at wavelength of 490 nm with the ELISA. Wells without drugs were used to be blanks. The IC50 values were calculated using Logit-method. The following Eq. (1) was proposed to calculate the inhibitory rate of cell growth:1 %inhibition=1-Sample group OD/Control group OD×100%

The subject of a further assay is HepG2 cells. In words: MTT cytotoxicity assay, HepG2. Format: cell-based, human. Conditions: 72 h, mean ± SD (n = 3).
Excerpt: as §1, §2

For another assay, the system named is HT-29 cells. In words: MTT cytotoxicity assay, HT-29. Format: cell-based, human. The conditions noted are these: 72 h, mean ± SD (n = 3).
Excerpt: as §1, §2

The test system of the next assay is MDCK cells. The assay is described as follows: MTT cytotoxicity assay, MDCK (non-tumor). Format: cell-based, canine. Conditions: MTT, 72 h, mean ± SD (n = 3), non-tumor cells.
Excerpt: as §1, §2

Another assay has as its system HY926 cells. The assay is described as follows: MTT cytotoxicity assay, HY926 (non-tumor). Conditions: MTT, 72 h, mean ± SD (n = 3), non-tumor cells. It is filed as cell-based.
Excerpt: as §1, §2

Another assay concerns H9C2 cells. The assay is described as follows: MTT cytotoxicity assay, H9C2 (non-tumor). Format: cell-based, rat. The conditions noted are these: MTT, 72 h, mean ± SD (n = 3), non-tumor cells.
Excerpt: as §1, §2
On the technique in general: Tetrazolium dyes change colour on reduction, which living cells bring about.

SMILES strings stand for the structures.

With `CC1(C)[C@@H](OC(=O)/C=C/c2ccccc2)CC[C@]2(C)[C@H]3C(=O)C=C4[C@@H]5C[C@@](C)(C(=O)O)CC[C@]5(C)CC[C@@]4(C)[C@]3(C)CC[C@@H]12` [Compound 1a, Cinnamoyl-3β-hydroxy-11-oxoolean-12-en-30-oic acid], the IC50 came to 23.7 ± 2.98 µM in the assay with Hela cells; 24.4 ± 1.39 µM with HepG2 cells; 22.3 ± 1.75 µM in the assay with HT-29 cells; 22.6 ± 1.38 µM in the assay with MDCK cells; 28.9 ± 1.85 µM with HY926 cells; 46.1 ± 2.01 µM in the assay on H9C2 cells.

For the molecule `CC1(C(=O)O)CCC2(C)CCC3(C)C(=CC(=O)C4C5(C)CCC(OC(=O)CCc6ccccc6)C(C)(C)C5CCC43C)C2C1` (stereo not drawn) [Compound 1b, Phenylpropanoyl-3β-hydroxy-11-oxoolean-12-en-30-oic acid], the IC50 is 26.9 ± 1.74 µM in the assay on Hela cells; 32.3 ± 1 µM with HepG2 cells; 28.6 ± 2.99 µM in the assay with HT-29 cells; 33.3 ± 2.98 µM with MDCK cells; 33.6 ± 3.09 µM with HY926 cells; more than 50 µM with H9C2 cells.

Take `Cc1ccc(/C=C/C(=O)OC2CCC3(C)C(CCC4(C)C3C(=O)C=C3C5CC(C)(C(=O)O)CCC5(C)CCC34C)C2(C)C)cc1` (stereo not drawn) [Compound 2a, (4-Methyl) cinnamoyl-3β-hydroxy-11-oxoolean-12-en-30-oic acid]: the IC50 is 14.2 ± 1.1 µM in the assay on Hela cells; 22.1 ± 1.18 µM with HepG2 cells; 21.7 ± 1.81 µM with HT-29 cells; 38 ± 1.81 µM in the assay with MDCK cells; 27.6 ± 1.84 µM in the assay on HY926 cells; more than 50 µM in the assay with H9C2 cells.

As for `COc1cccc(CCC(=O)OC2CCC3(C)C(CCC4(C)C3C(=O)C=C3C5CC(C)(C(=O)O)CCC5(C)CCC34C)C2(C)C)c1OC` (stereo not drawn) [Compound 2b, (2,3-Dimethoxy) phenylpropanoyl-3β-hydroxy-11-oxoolean-12-en-30-oic acid], the IC50 with Hela cells was 23.1 ± 2.33 µM; in the assay on HepG2 cells it was 33.1 ± 2.09 µM; with HT-29 cells, 29.3 ± 2.22 µM; in the assay with MDCK cells, 41.3 ± 1.48 µM; in the assay with HY926 cells, more than 50 µM; in the assay with H9C2 cells it was 45.8 ± 1.8 µM.

As for `COc1ccccc1/C=C/C(=O)OC1CCC2(C)C(CCC3(C)C2C(=O)C=C2C4CC(C)(C(=O)O)CCC4(C)CCC23C)C1(C)C` (stereo not drawn) [Compound 3a, (2-Methoxy) cinnamoyl-3β-hydroxy-11-oxoolean-12-en-30-oic acid], the IC50 in the assay with Hela cells was 24.6 ± 1.72 µM; with HepG2 cells, 32 ± 1.9 µM; in the assay with HT-29 cells, 22.2 ± 2.34 µM; with MDCK cells, 22.9 ± 2.43 µM; in the assay on HY926 cells, more than 50 µM; in the assay on H9C2 cells it was more than 50 µM.

For the molecule `COc1ccc(CCC(=O)O[C@H]2CC[C@]3(C)[C@H]4C(=O)C=C5[C@@H]6C[C@@](C)(C(=O)O)CC[C@]6(C)CC[C@@]5(C)[C@]4(C)CC[C@H]3C2(C)C)c(OC)c1OC` [Compound 3b, (2,3,4-Trimethoxy) phenylpropanoyl-3β-hydroxy-11-oxoolean-12-en-30-oic acid], the IC50 was 22.5 ± 2.16 µM in the assay with Hela cells; 27.3 ± 1.95 µM with HepG2 cells; 26.2 ± 1.24 µM in the assay on HT-29 cells; more than 30 µM with MDCK cells; 38.5 ± 2.02 µM with HY926 cells; more than 50 µM in the assay with H9C2 cells.

On to `COc1cccc(/C=C/C(=O)OC2CCC3(C)C(CCC4(C)C3C(=O)C=C3C5CC(C)(C(=O)O)CCC5(C)CCC34C)C2(C)C)c1` (stereo not drawn) [Compound 4a, (3-Methoxy) cinnamoyl-3β-hydroxy-11-oxoolean-12-en-30-oic acid], for which the half-inhibitory concentration (IC50) in the assay with Hela cells is 17.5 ± 1.52 µM; with HepG2 cells, 12.7 ± 1.1 µM; with HT-29 cells it was 14.9 ± 1.8 µM; with MDCK cells, 22.2 ± 2.56 µM; in the assay on HY926 cells it was 31 ± 1.87 µM; in the assay with H9C2 cells, more than 50 µM.

With `COc1cc(CCC(=O)OC2CCC3(C)C(CCC4(C)C3C(=O)C=C3C5CC(C)(C(=O)O)CCC5(C)CCC34C)C2(C)C)cc(OC)c1OC` (stereo not drawn) [Compound 4b, (3,4,5-Trimethoxy) phenylpropanoyl-3β-hydroxy-11-oxoolean-12-en-30-oic acid], the half-inhibitory concentration (IC50) with Hela cells was 28.7 ± 1.68 µM; in the assay with HepG2 cells it was 22.4 ± 1.29 µM; in the assay on HT-29 cells, 22.4 ± 1.2 µM; with MDCK cells it was more than 30 µM; with HY926 cells, more than 50 µM; in the assay on H9C2 cells it was more than 50 µM.
